Assay results taken from patent US6537998B1, “Gonadotropin-releasing hormone receptor antagonists and methods relating thereto” (Neurocrine Biosciences, Inc., priority 1999, dated 2003).

Biological target: T1, GnRH receptor (Homo sapiens, UniProt P30968)
T1 construct: expressed in transfected cells
T1 sequence (P30968 1-328): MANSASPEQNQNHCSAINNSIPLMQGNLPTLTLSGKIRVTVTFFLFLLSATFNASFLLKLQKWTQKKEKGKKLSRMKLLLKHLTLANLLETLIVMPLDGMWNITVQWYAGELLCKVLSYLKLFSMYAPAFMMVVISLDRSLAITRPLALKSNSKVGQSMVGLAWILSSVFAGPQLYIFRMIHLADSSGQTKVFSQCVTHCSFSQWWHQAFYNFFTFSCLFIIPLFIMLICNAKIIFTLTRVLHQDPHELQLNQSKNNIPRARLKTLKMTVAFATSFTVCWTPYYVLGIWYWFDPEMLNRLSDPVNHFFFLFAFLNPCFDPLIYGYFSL
Assay: GnRH Receptor Membrane Binding Assay
Details: calculated from IC50 for displacement of radiolabeled ligand ([125I]-labeled GnRH peptide) from the GnRH receptor, Cheng-Prusoff
Experimental: Activity of GnRH receptor antagonists are typically calculated from the IC50 as the concentration of a compound necessary to displace 50% of the radiolabeled ligand from the GnRH receptor, and is reported as a “Ki” value calculated by the following equation: [formula]
where L=radioligand and KD=affinity of radioligand for receptor (Cheng and Prusoff, Biochem. Pharmacol. 22:3099, 1973). GnRH receptor antagonists of this invention have a Ki of 100 μM or less. In a preferred embodiment of this invention, the GnRH receptor antagonists have a Ki of less than 10 μM, and more preferably less than 1 μM. More preferred compounds include: 1-1, 1-2-5, 12, 13-15, 19, 21, 27, 31, 32, 34, 37, 55, 58, 64, 73, 2B, 2D, 3A, 3B, 3D, 4A, 4B, 4C, 4D, 4G, 4H, 5A and 5B (see Examples below).
Radio-iodination of GnRH Peptide
The GnRH analog is labeled by the chloramine-T method. To 10 μg of peptide in 20 μl of 0.5M sodium phosphate buffer, pH 7.6, is added 1 mCi of Na125I, followed by 22.5 μg chloramine-T and the mixture vortexed for 20 sec. The reaction is stopped by the addition of 60 μg sodium metabisulfite and the free iodine is removed by passing the iodinated mixture through a C-8 Sep-Pak cartridge (Millipore Corp., Milford, Mass.). The peptide is eluted with a small volume of 80% acetonitrile/water. The recovered labeled peptide is further purified by reverse phase HPLC on a Vydac C-18 analytical column (The Separations Group, Hesperia, Calif.) on a Beckman 334 gradient HPLC system using a gradient of acetonitrile in 0.1% TFA. The purified radioactive peptide is stored in 0.1% BSA/20% acetonitrile/0.1% TFA at […] and can be used for up to 4 weeks.
GnRH Receptor Membrane Binding Assay
Cells stably, or transiently, transfected with GnRH receptor expression vectors are harvested, resuspended in 5% sucrose and homogenized using a polytron homogenizer (2×15 sec). Nuclei are removed by centrifugation (3000×g for 5 min.), and the supernatant centrifuged (20,000×g for 30 min, 4° C.) to collect the membrane fraction. The final membrane preparation is resuspended in binding buffer (10 mM Hepes (pH 7.5), 150 mM NaCl, and 0.1% BSA) and stored at −70° C. Binding reactions are performed in a Millipore MultiScreen 96-well filtration plate assembly with polyethylenimine coated GF/C membranes. The reaction is initiated by adding membranes (40 ug protein in 130 ul binding buffer) to 50 ul of [^125I]-labeled GnRH peptide (˜100,000 cpm), and 20 ul of competitor at varying concentrations. The reaction is terminated after 90 minutes by application of vacuum and washing (2×) with phosphate buffered saline. Bound radioactivity is measured using 96-well scintillation counting (Packard Topcount) or by removing the filters from the plate and direct gamma counting. Ki values are calculated from competition binding data using non-linear least squares regression using the Prism software package (GraphPad Software).

| Structure (SMILES) | Ki |
| --- | --- |
| COC(=O)C(C)(C)c1nc2n(Cc3ccccc3F)c(C)c(-c3cccc(OC)c3)c(=O)n2c1CNCc1ccccn1 [Example 4G] | < 1000 nM |
| CCN(CC)CCN(C)Cc1c(C(C)(C)C)nc2n(Cc3ccccc3F)c(C)c(-c3ccc4c(c3)OCO4)c(=O)n12 [Example 1-73] | < 1000 nM |
| COc1cccc(-c2c(C)n(Cc3ccccc3F)c3nc(C4(C)CCOC4=O)c(CN(C)Cc4ccco4)n3c2=O)c1 (stereo not shown) [Example 1-27] | < 1000 nM |
| COC(=O)C(C)(C)c1nc2n(Cc3ccccc3F)c(C)c(-c3cccc(OC)c3)c(=O)n2c1CN(C)Cc1ccco1 [Example 4D] | < 1000 nM |
| COc1cccc(-c2c(C)n(Cc3ccccc3F)c3nc(C(C)(C)C)c(CN(C)[C@H](C)c4ccccc4)n3c2=O)c1 [Example 1-37] | < 1000 nM |
| COc1cccc(-c2c(C)n(Cc3ccccc3F)c3nc(C4(C)CCOC4=O)c(CN(C)Cc4ccccc4)n3c2=O)c1 (stereo not shown) [Example 1-21] | < 1000 nM |
| COC(=O)C(C)(C)c1nc2n(Cc3ccccc3F)c(C)c(-c3cccc(OC)c3)c(=O)n2c1CN(C)Cc1ccccc1 [Example 4A, 2-(1-methoxycarbonyl-1-methylethyl)-3-(N-methyl-N-benzylaminomethyl)-5-(3-methoxyphenyl)-6-methyl-7-(2-flurorbenzyl)imidazolo[1,2-a]pyrimid-4-one] | < 1000 nM |
| CCOC(=O)Cc1nc2n(Cc3ccccc3F)c(C)c(-c3cccc(OC)c3)c(=O)n2c1CN(C)Cc1ccccc1 [Example 5B, 2-ethoxycarbonylmethyl-3-{N-methyl-N-benzyl)-5-(3-methoxyphenyl)-6-methyl-7-(2-fluorobenzyl)imidazolo[1,2-a]pyrimid-4-one] | < 1000 nM |
| CCOC(=O)Cc1nc2n(Cc3ccccc3F)c(C)c(-c3cccc(OC)c3)c(=O)n2c1CN(C)CCc1ccccn1 [Example 5A, 2-Ethoxycarbonylmethyl-3-{N-methyl-N-[2-(2-pyridyl)ethyl]aminomethyl}-5-(3-methoxyphenyl)-6-methyl-7-(2-fluorobenzyl)imidazolo[1,2-a]pyrimid-4-one] | < 1000 nM |

Next, values leading:

| Ki | Structure (SMILES) |
| --- | --- |
| < 1000 nM | CC(=O)c1cccc(-c2c(C)n(Cc3ccccc3F)c3nc(C(C)(C)C)c(CN(C)Cc4ccccc4)n3c2=O)c1 [Example 1-31] |
| < 1000 nM | COC(=O)C(C)(C)c1nc2n(Cc3ccccc3F)c(C)c(-c3cccc(OC)c3F)c(=O)n2c1CN(C)CCc1ccccn1 [Example 4H] |
| < 1000 nM | COc1cccc(-c2c(C)n(Cc3ccccc3F)c3nc(C(C)(C)C)c(CN(C)CCc4ccccn4)n3c2=O)c1 [Example 1-1, 2-(tert-butyl)-3-[N-methyl-N-(2-pyridylethyl)aminomethyl]-5-(3-methoxyphenyl)-6-methyl-7-(2-fluorobenzyl)immidazolo[1,2-a]pyrimid-4-one] |
| < 1000 nM | Cc1c(-c2ccccc2F)c(=O)n2c(CN(C)CCc3ccccn3)c(C(C)(C)C)nc2n1Cc1ccccc1F [Example 1-55] |
| < 1000 nM | COc1cccc(-c2c(C)n(Cc3ccccc3F)c3nc(C(C)(C)C)c(CN(C)Cc4ccccn4)n3c2=O)c1 [Example 1-12] |
| < 1000 nM | Cc1c(-c2ccccc2)c(=O)n2c(CN(C)Cc3ccco3)c(C(C)(C)C)nc2n1Cc1ccccc1F [Example 1-19] |
| < 1000 nM | CC(=O)c1cccc(-c2c(C)n(Cc3ccccc3F)c3nc(C(C)(C)C)c(CN(C)CCc4ccccn4)n3c2=O)c1 [Example 1-32] |
